Results as given in ChEMBL document CHEMBL1201862, “PubChem BioAssay data set” (2004).
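Cultured in 96-well plates, cells were exposed to test compound for 48 hours across five concentrations. Here, GI50 denotes the concentration required for 50% inhibition of growth.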 Active and inactive are the calls of the source. No stated cut-off is given here; in the data, active = GI50 up to about 1.1 µM and inactive = higher.

Legend:
Assay in all cases: inhibition of tumour cell growth, NCI panel, 48 h
[1] = test system: SF-539
[2] = test system: SF-295
[3] = test system: CCRF-CEM
[4] = test system: HT-29
[5] = test system: NCI-H460
[6] = test system: 786-0
[7] = test system: NCI-H23
[8] = test system: CAKI-1
[9] = test system: UACC-62
[10] = test system: UO-31
[11] = test system: M19-MEL
[12] = test system: HCT-15
[13] = test system: HCT-116
[14] = test system: NCI-H226
[15] = test system: LXFL 529
[16] = test system: SN12C
[17] = test system: HL-60
[18] = test system: MDA-MB-231
[19] = test system: DU-145
[20] = test system: MCF7

SMILES | GI50 [1] | GI50 [2] | GI50 [3] | GI50 [4] | GI50 [5] | GI50 [6] | GI50 [7] | GI50 [8] | GI50 [9] | GI50 [10] | GI50 [11] | GI50 [12] | GI50 [13] | GI50 [14] | GI50 [15] | GI50 [16] | GI50 [17] | GI50 [18] | GI50 [19] | GI50 [20]
COc1cc2c(c(O)c1C)C(=O)CC(c1ccccc1)O2 (centres undefined) | > 100 µM (inactive) | > 10 µM (inactive) | > 10 µM (inactive) | > 10 µM (inactive) | > 10 µM (inactive) | 59.7 µM (inactive) | 22.4 µM (inactive) | 94.8 µM (inactive) | 47.9 µM (inactive) | 23 µM (inactive) | 45.8 µM (inactive) | 66.4 µM | 31.7 µM (inactive) | 18.4 µM (inactive) | 56.2 µM (inactive) | 37.5 µM (inactive) | – | – | – | –
O=C1C(C2=[N+]([O-])c3ccccc3C2=O)=[N+]([O-])c2ccccc21 | 20.5 µM (inactive) | 40.7 µM (inactive) | 19.3 µM (inactive) | 32.8 µM (inactive) | 23.1 µM (inactive) | 20.6 µM (inactive) | 23.9 µM (inactive) | – | > 10 µM (inactive) | 43.1 µM (inactive) | 24.3 µM (inactive) | – | – | 25.5 µM (inactive) | 17 µM (inactive) | – | 19.4 µM (inactive) | – | – | –
NC(=S)N/N=C/c1nccc2ccccc12 | 0.223 µM (active) | 0.168 µM (active) | 0.453 µM (active) | 0.731 µM (active) | 0.415 µM (active) | 0.2 µM (active) | 0.459 µM (active) | 0.738 µM (active) | 0.281 µM (active) | 0.443 µM (active) | 0.918 µM (active) | 0.975 µM | 0.914 µM (active) | – | 1.96 µM (inactive) | 0.682 µM (active) | 0.393 µM (active) | – | – | –
COc1cc([C@@H]2c3cc4c(cc3[C@@H](NC(=O)c3cccc(C#N)c3)C3COC(=O)[C@@H]32)OCO4)cc(OC)c1O (some centres undefined) | 0.141 µM (active) | 0.372 µM (active) | 0.0841 µM (active) | 1.85 µM (inactive) | < 0.01 µM (active) | 0.703 µM (active) | 0.214 µM (active) | 0.678 µM (active) | 0.308 µM (active) | 5.47 µM (inactive) | – | 3.81 µM | 1.1 µM (active) | 0.0671 µM (active) | 5.93 µM (inactive) | 0.229 µM (active) | 0.166 µM (active) | – | – | –
Cc1ccc(Cn2c(C)nc3c2C(=O)c2ccccc2C3=O)cc1 | 1.32 µM (inactive) | 7.66 µM (inactive) | 1.98 µM (inactive) | 1.27 µM (inactive) | 0.387 µM (active) | 2.18 µM (inactive) | 5.21 µM (inactive) | – | 1.12 µM (inactive) | 6.32 µM (inactive) | 7.05 µM (inactive) | 0.619 µM | 0.755 µM (active) | 6.9 µM (inactive) | 1.72 µM (inactive) | 6.18 µM (inactive) | 1.91 µM (inactive) | – | – | –
CC1(C)CC(/C=C2/OC(=O)c3ccccc32)=C(C#N)C(=O)O1 | > 100 µM (inactive) | > 100 µM (inactive) | > 100 µM (inactive) | > 100 µM (inactive) | > 100 µM (inactive) | > 100 µM (inactive) | > 100 µM (inactive) | > 100 µM (inactive) | > 100 µM (inactive) | > 100 µM (inactive) | > 100 µM (inactive) | > 100 µM | > 100 µM (inactive) | > 100 µM (inactive) | > 100 µM (inactive) | > 100 µM (inactive) | – | – | – | –
COc1ccc(/C(=N\NC(=O)C(N)=O)C(c2ccc(OC)cc2)C2(O)C(=O)Nc3c(Cl)cccc32)cc1 (centres undefined) | – | > 100 µM (inactive) | 50.1 µM (inactive) | > 100 µM (inactive) | > 100 µM (inactive) | 74.8 µM (inactive) | > 100 µM (inactive) | – | > 100 µM (inactive) | > 100 µM (inactive) | > 100 µM (inactive) | – | > 100 µM (inactive) | > 100 µM (inactive) | > 100 µM (inactive) | > 100 µM (inactive) | 26.9 µM (inactive) | – | – | –
CC(=O)Oc1cc(OC(C)=O)c(OC(C)=O)c2c1CC1C(=O)C3(CCc4ccccc43)C(=O)C1C2 (centres undefined) | – | 4.61 µM (inactive) | 10.7 µM (inactive) | 20.7 µM (inactive) | 13.9 µM (inactive) | 13.6 µM (inactive) | 18.4 µM (inactive) | 20.2 µM (inactive) | 14.5 µM (inactive) | 22.1 µM (inactive) | 15.7 µM (inactive) | 18.1 µM | – | – | 14.4 µM (inactive) | 17.3 µM (inactive) | 4.53 µM (inactive) | – | – | –
O=C(O)CCCc1cc2c(s1)-c1cccc3cccc-2c13 | 45.3 µM (inactive) | 50.1 µM (inactive) | – | > 100 µM (inactive) | > 100 µM (inactive) | > 100 µM (inactive) | 21.2 µM (inactive) | 32.6 µM (inactive) | 21.3 µM (inactive) | 17 µM (inactive) | – | 20.2 µM | 34.8 µM (inactive) | 84.9 µM (inactive) | 35 µM (inactive) | 26 µM (inactive) | 22.4 µM (inactive) | – | – | –
C=C(C)C1CC2(C)C(C)CC(O)CC2C(OC(=O)C=C(C)C)C1O (centres undefined) | 30.9 µM (inactive) | 23 µM (inactive) | 30.8 µM (inactive) | 24.4 µM (inactive) | 22.8 µM (inactive) | > 100 µM (inactive) | 30.3 µM (inactive) | 43.3 µM (inactive) | 71.9 µM (inactive) | 24.4 µM (inactive) | – | 27.3 µM | 52.7 µM (inactive) | 0.933 µM (active) | – | 30.9 µM (inactive) | 23 µM (inactive) | 24.5 µM (inactive) | 60.5 µM (inactive) | 29.6 µM (inactive)
CCCCCCCCCCCCCC(=O)OCC(C[As](=O)(O)O)OC(=O)CCCCCCCCCCCCC (centres undefined) | > 100 µM (inactive) | – | > 100 µM (inactive) | > 100 µM (inactive) | > 100 µM (inactive) | > 100 µM (inactive) | > 100 µM (inactive) | > 100 µM (inactive) | > 100 µM (inactive) | > 100 µM (inactive) | – | 69.3 µM | > 100 µM (inactive) | > 100 µM (inactive) | > 100 µM (inactive) | 92 µM (inactive) | – | – | – | –
Cc1cc(-c2ccc(C(=O)C(c3ccccc3)(c3ccccc3)c3ccccc3)[nH]2)on1 | 29.7 µM (inactive) | 14.2 µM (inactive) | 15.5 µM (inactive) | 11.4 µM (inactive) | 7.21 µM (inactive) | 18.4 µM (inactive) | 15 µM (inactive) | 33.1 µM (inactive) | 16.1 µM (inactive) | 15.2 µM (inactive) | – | 17.5 µM | 12.5 µM (inactive) | 16.9 µM (inactive) | – | 19.1 µM (inactive) | 3.56 µM (inactive) | 19.7 µM (inactive) | 14.2 µM (inactive) | 18.2 µM (inactive)
Cc1ccc(CC(C)N)cc1 (centres undefined) | > 100 µM (inactive) | > 100 µM (inactive) | > 100 µM (inactive) | > 100 µM (inactive) | > 100 µM (inactive) | > 100 µM (inactive) | > 100 µM (inactive) | > 100 µM (inactive) | > 100 µM (inactive) | > 100 µM (inactive) | – | > 100 µM | > 100 µM (inactive) | > 100 µM (inactive) | > 100 µM (inactive) | > 100 µM (inactive) | > 100 µM (inactive) | – | – | –
O=C1C=C(Nc2cc(Cl)ccc2Cl)c2ccccc2C1=O | 33.3 µM (inactive) | 25.1 µM (inactive) | – | 86.9 µM (inactive) | 25.9 µM (inactive) | 34.8 µM (inactive) | 20.7 µM (inactive) | 32.2 µM (inactive) | 16.9 µM (inactive) | 23.9 µM (inactive) | 15.7 µM (inactive) | 26.5 µM | 34.1 µM (inactive) | 23.9 µM (inactive) | – | 38.5 µM (inactive) | 15.8 µM (inactive) | – | – | –
C=CC/N=C1\N=C(C)C(C(=O)OCC)S1 (centres undefined) | > 100 µM (inactive) | > 100 µM (inactive) | 7.05 µM (inactive) | > 100 µM (inactive) | > 100 µM (inactive) | > 100 µM (inactive) | > 100 µM (inactive) | > 100 µM (inactive) | > 100 µM (inactive) | > 100 µM (inactive) | – | > 100 µM | > 100 µM (inactive) | > 100 µM (inactive) | > 100 µM (inactive) | > 100 µM (inactive) | 7.16 µM (inactive) | – | – | –
COc1cc(/C=C/C(=O)N[C@@H]2C(=O)N3[C@@H]2SC(C)(C)[C@@H]3C(=O)O)cc(OC)c1OC | > 100 µM (inactive) | > 100 µM (inactive) | > 100 µM (inactive) | > 100 µM (inactive) | > 100 µM (inactive) | > 100 µM (inactive) | > 100 µM (inactive) | > 100 µM (inactive) | > 100 µM (inactive) | > 100 µM (inactive) | – | > 100 µM | > 100 µM (inactive) | > 100 µM (inactive) | – | > 100 µM (inactive) | > 100 µM (inactive) | > 100 µM (inactive) | > 100 µM (inactive) | > 100 µM (inactive)
C/C(=C(/C)c1cc[n+](C)cc1)c1cc[n+](C)cc1 | > 75 µM (inactive) | > 75 µM (inactive) | > 75 µM (inactive) | > 75 µM (inactive) | > 75 µM (inactive) | > 75 µM (inactive) | > 75 µM (inactive) | > 75 µM (inactive) | > 75 µM (inactive) | > 75 µM (inactive) | – | 52.7 µM | > 75 µM (inactive) | – | 69.8 µM (inactive) | > 75 µM (inactive) | > 75 µM (inactive) | – | – | –
CC(=O)OCCOc1cc2c([nH]c3ccccc32)c(C)c2cccc1-2 | 1.91 µM (inactive) | 3.28 µM (inactive) | 3.38 µM (inactive) | 3.78 µM (inactive) | 2.59 µM (inactive) | 2.84 µM (inactive) | 1.94 µM (inactive) | 2.12 µM (inactive) | 2.39 µM (inactive) | 1.75 µM (inactive) | – | 2.94 µM | 3.3 µM (inactive) | 10.3 µM (inactive) | – | 3.01 µM (inactive) | 3.05 µM (inactive) | 1.66 µM (inactive) | 4.16 µM (inactive) | 2.94 µM (inactive)
